Data taken from publication PMC6380468, “Investigations on small molecule inhibitors targeting the histone H3K4 tri-methyllysine binding PHD-finger of JmjC histone demethylases” (Bioorganic & Medicinal Chemistry, 2018).

Columns and labels:
His-KDM5A(PHD3) = biological target: T1, His-KDM5A(PHD3) (Homo sapiens, UniProt P29375); assay: AlphaScreen displacement assay, H3K4me3-Bn from His-KDM5A(PHD3); format: binding; conditions: AlphaScreen; 25 nM protein and 25 nM peptide; average ± StdDev, n ≥ 3; NM = not measurable within the solubility range; read-out: IC50 for displacement of H3K4me3-Bn from His-KDM5A(PHD3)
T1 construct: KDM5A(PHD3) (1542 – 1660), encoded by a pGTLV2 vector; made in house; host or cells: E. coli Rosetta 2(DE3)pLysS
T1 sequence (P29375 1542-1660): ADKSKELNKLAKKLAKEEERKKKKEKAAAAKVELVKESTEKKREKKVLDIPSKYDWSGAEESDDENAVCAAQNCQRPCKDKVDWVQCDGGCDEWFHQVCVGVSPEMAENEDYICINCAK
Procedure: AlphaScreen is a homogenous bead-based assay used to study protein-protein interactions.[28] […] AlphaScreen beads were then added and incubated for 1 h. Changes in the AlphaScreen signals with increasing inhibitor concentrations were then measured to quantify the level of KDM5A(PHD3) and H3K4me3 binding, and IC50 values were determined.
His-tagged PHD finger constructs and H3K4me3-Bn peptides were diluted into AlphaScreen assay buffer (50mM HEPES, 150mM NaCl, 0.1% BSA, 0.01% Tween20, pH 7.5). An 8-point 1:2 dilution series was made for both protein and peptide. With a multichannel pipette (LTS P10), 5 µL protein was dispensed into 8 columns of a 384-well plate, followed by 5 µL of 4% DMSO in AlphaScreen assay buffer. The mixture was incubated at room temperature for 15 minutes, followed by dispensing 5 µL peptide across 8 rows of the 384-well plate, forming a cross-gradient of protein and peptide. The contents were incubated for 30 minutes at room temperature, followed by the addition of 5 µL of a mixture of AlphaScreen Streptavidin donor beads and Nickel Chelate acceptor beads in AlphaScreen assay buffer (20 µg/mL final). The samples were incubated for 60-120 minutes at room temperature in the dark, followed by measurement of luminescence on a BMG Labtech Pherastar plate reader (Software Ver. 5.30 R3, Firmware Ver. 1.21). The data was plotted in Prism Ver 7.01 (GraphPad Software, Inc.) and fitted to a linear model in order to determine the optimal concentration of protein and peptide within the linear signal range for each reader domain.
(§1) For peptide displacement assays, 5 µL of the inhibitor dilution series (at a concentration of 4% DMSO in AlphaScreen assay buffer) was pre-incubated with 5 µL of the protein at RT for 15 minutes. Peptide solution (5 µL) was added and incubated for 30 minutes at RT, followed by the addition of 5 µL of a mixture of AlphaScreen Streptavidin donor beads and Nickel Chelate acceptor beads in AlphaScreen assay buffer (20 µg/mL final). The contents were incubated for 60-120 minutes at RT in the dark, followed by measurement of luminescence on a BMG Labtech Pherastar plate reader (Software Ver. 5.30 R3, Firmware Ver. 1.21). The data was plotted in Prism Ver 7.01 (GraphPad Software, Inc.) and fitted to a Log(inhibitor) v/s response – variable slope model in order to obtain IC50 values.

[1] = AlphaScreen biotin-His6 counterscreen; conditions: AlphaScreen interference counterscreen with biotin-His6; unit inferred; DNC = data did not converge to binding model; NM = not measurable within the solubility range
KDM5A_c2 (ΔARID/PHD1) = biological target: T2, KDM5A_c2 (ΔARID/PHD1) (Homo sapiens, UniProt P29375); assay: MALDI-TOF MS H3K4me3 demethylation assay, KDM5A_c2; format: biochemical; conditions: average ± StdDev of n = 2, read-out: IC50, inhibition of H3K4me3 demethylation activity, KDM5A_c2
T2 sequence (P29375 with tags, fused parts or gaps): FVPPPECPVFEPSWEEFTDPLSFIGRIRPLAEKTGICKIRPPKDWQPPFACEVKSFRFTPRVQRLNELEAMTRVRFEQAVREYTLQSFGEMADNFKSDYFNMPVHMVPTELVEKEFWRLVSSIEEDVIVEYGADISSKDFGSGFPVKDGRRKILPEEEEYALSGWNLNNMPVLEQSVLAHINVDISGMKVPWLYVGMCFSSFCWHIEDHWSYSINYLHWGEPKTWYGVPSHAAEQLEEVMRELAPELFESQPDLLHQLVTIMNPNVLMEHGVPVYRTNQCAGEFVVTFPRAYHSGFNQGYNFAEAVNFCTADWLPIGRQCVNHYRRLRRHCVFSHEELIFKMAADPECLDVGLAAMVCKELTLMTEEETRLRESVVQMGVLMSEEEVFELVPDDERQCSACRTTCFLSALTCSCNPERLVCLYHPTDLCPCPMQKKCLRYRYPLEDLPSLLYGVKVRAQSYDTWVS
Procedure: Two catalytically active constructs of KDM5A were employed, KDM5A_c1 (M1-L801) and KDM5A_c2 (ΔARID/PHD1, P13-S744 with L88-G353 (ARID/PHD1) replaced with a GGGG linker) and both KDM5A_c1 and KDM5A_c2 constructs lack the PHD2 and PHD3. […] A MALDI-TOF MS assay was used to measure the activity of H3K4me3 demethylation in the presence of inhibitors (Table 2, Fig. 3C and D).
The KDM5A mixture (5 µL, KDM5A-c1: 1.0 µM or KDM5A-c2: 0.5 µM) was pre-incubated with 100 nL inhibitors (in DMSO) for 10 min. […] The mixture was quenched using formic acid (5 µL, 1 v/v% in MQ) after 4 minutes (KDM5A-c1) or 3 minutes (KDM5A-c2). The stopped reaction (1 µL) was mixed with […] (CHCA) MALDI matrix (saturated solution in TFA (0.1%) in MilliQ water and trifluoroacetic acid (0.1%) acetonitrile (1:1)) at 1:1 ratio (2 µL), air dried and analysed using Bruker microflex MALDI-TOF controlled with FlexControl. The data were further processed using FlexAnalysis and excel.

KDM7B(PHD) = biological target: T3, KDM7B(PHD) (Homo sapiens, UniProt Q9UPP1); assay: AlphaScreen displacement of H3K4me3-Bn from His-KDM7B(PHD); format: binding; conditions: AlphaScreen; 12.5 nM protein and 12.5 nM peptide; n ≥ 3; read-out: IC50 for displacement of H3K4me3-Bn from His-KDM7B(PHD)
T3 construct: made in house
T3 sequence (Q9UPP1 41-92 limits assumed): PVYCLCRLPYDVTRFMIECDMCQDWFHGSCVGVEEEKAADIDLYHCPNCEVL
Procedure: as §1

KDM7C(PHD) = biological target: T4, KDM7C(PHD) (Homo sapiens, UniProt O75151); assay: AlphaScreen displacement of H3K4me3-Bn from His-KDM7C(PHD); format: binding; conditions: AlphaScreen; 25 nM KDM7C(PHD) and 6.25 nM peptide; n ≥ 3; read-out: IC50 for displacement of H3K4me3-Bn from His-KDM7C(PHD)
T4 construct: made in house
T4 sequence (O75151 5-56 limits assumed): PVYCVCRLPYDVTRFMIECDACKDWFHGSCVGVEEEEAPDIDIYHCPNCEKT
Procedure: as §1

KDM7A (PHD-JmjC) = assay: MALDI-TOF MS H3K9me2 demethylation assay, KDM7A(PHD-JmjC); format: biochemical, human; conditions: at 100 µM, substrate H3(1–15)K9me2
Procedure: Final concentrations were: 1mM ascorbate, 50 µM (NH4)2Fe(II)(SO4)2 and 200 µM 2OG. The mixture was quenched using formic acid after 10 minutes (KDM7A) or 5 minutes (KDM7B).

IC50 (His-KDM5A(PHD3)) | IC50 (KDM5A_c2 (ΔARID/PHD1)) | IC50 (KDM7B(PHD)) | IC50 (KDM7C(PHD)) | Compound | IC50 [1] | KDM7A (PHD-JmjC) (Catalytic), inhibition of H3K9me2 demethylation (KDM7A (PHD-JmjC))
166 ± 20 µM | > 1000 µM | 397 ± 77 µM | 158 ± 30 µM | CCCCc1oc2ccccc2c1C(=O)c1ccc(OCCCN(C)C)cc1 [Compound 1a, (2-Butylbenzofuran-3-yl)(4-(3-(dimethylamino)propoxy)phenyl)methanone] | 0.484 ± 0.082 mM | 100% (100 µM)
340 ± 44 µM | 37 ± 14 µM | 355 ± 39 µM | 579 ± 87 µM | CCCCc1oc2ccccc2c1C(=O)c1ccc(OCCC[N+](C)(C)C)cc1.[I-] [Compound 2a, 3-(4-(2-Butylbenzofuran-3-carbonyl)phenoxy)-N,N,N-trimethylpropan-1-aminium iodide] | 4.3 ± 0.163 mM | 100% (100 µM)
